Results from PMC7211193, “Evaluation of absorption, distribution, metabolism, and excretion of [^14C]-rucaparib, a poly(ADP-ribose) polymerase inhibitor, in patients with advanced solid tumors” (Investigational New Drugs, 2019).

Assay: Metabolite profiling in plasma (LC-MS-TopCount)
Assay type: in vivo, human
Procedure: Plasma samples from six patients were pooled using two methods: (1) A Hamilton pool plasma (0–24 h) for metabolite profile determination was prepared by combining plasma aliquots of a volume proportional to the time interval used for calculating the AUC (AUC0-24h pool) for each patient and (2) four time-point pooling samples were obtained by equal volume pool at 1, 4, 8, and 24 h across six patients. In addition, plasma samples at 1, 8, and 24 h were selected from three patients (Patients 03, 08, and 09) for metabolite profiles analysis to check the individual differences between patients. Samples collected after 24 h post dose were not included in the pooling due to the low radioactivity at later time points. All plasma samples (pooled and from individuals) were extracted at least two times with acetonitrile. All supernatants were evaporated to dryness, and the dried residues were reconstituted in 20% acetonitrile in water containing 0.1% TFA. The sample recovery was obtained by comparing the radioactivity concentrations before and after extraction, and the mean recovery was about 70%.
Aliquots of the supernatants were injected into the HPLC, and the HPLC elutes were collected as fractions at intervals of 30 sec per well into LumaPlate-96 DeepWell microplates (PerkinElmer). Due to the low radioactivity in each plasma sample, metabolite profiles were obtained by TopCount (PerkinElmer) analysis of HPLC elutes. The fractions were dried at room temperature, and then analyzed by a TopCount NXT radiometric microplate reader (PerkinElmer) to obtain metabolite profiles. The supernatants of extracts were also analyzed using an LC-MS method to identify metabolites.
Metabolite profiling and identification were performed on an LC system (Agilent) coupled to an LTQ Orbitrap mass spectrometer (Thermo Electron, Waltham, MA, USA) in combination with offline TopCount (LC-MS-TopCount) or online Radiomatic 625TR (LC-MS-Radiomatic; PerkinElmer). Proposed structures of the metabolites were based on accurate mass (<5 ppm) and comparison of mass spectral data of parent compound rucaparib and metabolite standard M324. The Radiomatic 625TR flow detector, equipped with a 200 μL flow cell, was operated using scintillation cocktail (Ultima-Flo M) delivered at a flow rate of 1 mL/min. Chromatography was done using a Phenomenex (Torrance, CA, USA) Luna Phenyl-Hexyl column (250 × 2 mm, 5 μm, 100 Å) at ambient temperature during the sample analysis. The mobile phase was (A) 0.05% TFA in water and (B) 0.05% TFA in acetonitrile, with a 0.2 mL/min flow rate. The gradient was as follows: 5% B over 2.1 min, to 20% B in 1.0 min, to 35% B in 16.9 min, isocratic at 35% B for 5 min, to 95% B over 5 min, and reduced to 5% B over 1 min, with total run time 45 min.
The abundance of unchanged rucaparib and metabolites identified in plasma, urine, and feces was determined as a percentage of the TRA in the analyzed samples. Percentage of the administered dose of rucaparib and metabolites was calculated in urine and feces (formula A). The concentration of rucaparib and its metabolites in plasma (ng Eq h/mL) was calculated based on the specific activity, TRA, and percentage of peaks (formula B). The AUC0-24h value of rucaparib and its major metabolite M324 in plasma was calculated using both Hamilton method (formula C) and linear trapezoidal method (formula D). • (A) %Doseofmetabolite=TRAinurineorfeces(dpm)÷TRAinadministereddose(dpm)×%metabolitesinmatrix • (B) Metaboliteconcentrationsinplasma(ngEq/mL)=TRAinplasma(dpm/mL)specificactivity(ngEq/dpm)×%metabolitesinthematrix • (C) Hamiltonmethod:AUC0−24h(ngEqh/mL)=concentrationinHamilton(AUC0−24h)pooledplasma(ngEq/mL)×24(h) • (D) Lineartrapezoidalmethod:AUC0−24h(ngEqh/mL)=C1h/2×1h+C1h+C4h/2×(4h−1h)+C4h+C8h/2×(8h−4h)+C8h+C24h/2×(24h−8h)

[1] = 0-24 h pooled plasma, N = 6, mean ± SD

CNCc1ccc(-c2[nH]c3cc(F)cc4c3c2CCNC4=O)cc1 [Rucaparib, rucaparib]
% Peak (of plasma radioactivity), Hamilton (AUC0-24h) pooled plasma [1]: 64.0 ± 13.7% | Concentration, Hamilton (AUC0-24h) pooled plasma [1]: 335 ± 120 ng Eq/mL | % Peak (of plasma radioactivity), Hamilton (AUC0-24h) pooled plasma (0-24 h pooled plasma, N = 6, mean ± SD, listed as rucaparib): 64.0% and ≈ 64% | % Radioactive peaks in individual plasma, Patient 03, 1 h (Patient 03, 1 h): 75.0% | % Radioactive peaks in individual plasma, Patient 03, 8 h (Patient 03, 8 h): 66.7% | % Radioactive peaks in individual plasma, Patient 03, 24 h (Patient 03, 24 h): 36.1% | % Radioactive peaks in individual plasma, Patient 08, 1 h (Patient 08, 1 h): 92.1% | % Radioactive peaks in individual plasma, Patient 08, 8 h (Patient 08, 8 h): 68.2% | % Radioactive peaks in individual plasma, Patient 08, 24 h (Patient 08, 24 h): 38.5% | % Radioactive peaks in individual plasma, Patient 09, 1 h (Patient 09, 1 h): 84.6% | % Radioactive peaks in individual plasma, Patient 09, 8 h (Patient 09, 8 h): 82.1% | % Radioactive peaks in individual plasma, Patient 09, 24 h (Patient 09, 24 h): 56.5% | % Radioactive peaks in individual plasma, Mean ± SD, 1 h (Patients 03, 08, 09, 1 h): 83.9 ± 8.57% | % Radioactive peaks in individual plasma, Mean ± SD, 8 h (Patients 03, 08, 09, 8 h): 72.3 ± 8.49% | % Radioactive peaks in individual plasma, Mean ± SD, 24 h (Patients 03, 08, 09, 24 h): 43.7 ± 11.1% | AUC0-24h, Hamilton (AUC0-24h) pooled plasma (concentration in 0-24-h pooled sample × 24 h): 8040 ng Eq h/mL | concentration at 1 h (human, plasma, oral, 600 mg, single pooled sample from all six patients, 1 h, read-out: Mean concentration, time point pooled plasma, 1 h): 317 ng/mL | concentration at 4 h (human, plasma, oral, 600 mg, single pooled sample from all six patients, 4 h, read-out: Mean concentration, time point pooled plasma, 4 h): 590 ng/mL | concentration at 8 h (human, plasma, oral, 600 mg, single pooled sample from all six patients, 8 h, read-out: Mean concentration, time point pooled plasma, 8 h): 545 ng/mL | concentration at 24 h (human, plasma, oral, 600 mg, single pooled sample from all six patients, 24 h, read-out: Mean concentration, time point pooled plasma, 24 h): 151 ng/mL | Mean AUC0-24h, time point pooled plasma (trapezoidal method from 1, 4, 8, 24 h pools): 9360 ng Eq h/mL
